The text below walks through data of ChEMBL document CHEMBL5120947, “General Pharmacological Activation Mechanism of K+ Channels Bypassing Channel Gates” (J Med Chem, 2022).

The structures appear in SMILES notation. Activity calls are given as the source filed them. The rule behind the calls is not given here.

Data set [1] concerns the target Potassium voltage-gated channel subfamily KQT member 2 (Homo sapiens) (UniProt O43526). Briefly: Agonist activity at human KCNQ2 expressed in CHO cells assessed as increase in outward current at 10 uM at 50 mV by patch clamp electrophysiology method. The data set is classed as cell-based. The note with it: filed as agonist. For orientation: In patch-clamp work, channel activity is measured electrically.

The nature of data set [2]: Lipophilicity, logD of the compound. The following applies: octanol/water. The data set is classed as physicochemical.
The target of data set [3] is Potassium voltage-gated channel subfamily KQT member 5 (Homo sapiens, UniProt Q9NR82). Briefly: Agonist activity at human KCNQ5 channel expressed in CHO cells assessed as increase in outward current by patch clamp electrophysiology method. In kind it is cell-based.
For data set [4], the target named is T1, Potassium voltage-gated channel subfamily KQT member 4 (Homo sapiens, UniProt P56696).
T1 sequence (P56696 whole entry): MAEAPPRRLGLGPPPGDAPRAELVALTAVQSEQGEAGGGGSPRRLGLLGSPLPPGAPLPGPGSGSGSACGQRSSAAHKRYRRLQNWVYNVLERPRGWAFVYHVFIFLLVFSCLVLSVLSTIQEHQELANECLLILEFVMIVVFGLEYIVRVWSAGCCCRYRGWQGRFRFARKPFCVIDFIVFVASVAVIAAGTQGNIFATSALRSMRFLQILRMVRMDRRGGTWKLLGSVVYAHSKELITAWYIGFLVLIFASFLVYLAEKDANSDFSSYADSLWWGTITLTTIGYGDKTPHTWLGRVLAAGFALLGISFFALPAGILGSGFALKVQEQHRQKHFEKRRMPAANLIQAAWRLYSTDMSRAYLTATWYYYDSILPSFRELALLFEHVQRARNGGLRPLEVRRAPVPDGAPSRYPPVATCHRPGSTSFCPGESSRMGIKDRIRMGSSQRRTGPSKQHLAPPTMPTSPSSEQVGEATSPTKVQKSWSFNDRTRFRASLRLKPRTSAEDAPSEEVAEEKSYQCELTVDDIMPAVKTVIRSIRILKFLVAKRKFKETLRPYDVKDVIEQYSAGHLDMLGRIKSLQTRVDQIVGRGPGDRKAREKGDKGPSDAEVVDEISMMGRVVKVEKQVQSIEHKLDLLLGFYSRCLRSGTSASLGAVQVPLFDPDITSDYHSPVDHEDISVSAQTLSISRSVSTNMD
Nature of the data set: Agonist activity at human KCNQ4 channel expressed in CHO cells assessed as increase in outward current by patch clamp electrophysiology method. The data set is classed as cell-based.

Data set [5] deals with T2, Potassium channel subfamily K member 2 (Homo sapiens) (UniProt O95069).
T2 sequence (whole entry): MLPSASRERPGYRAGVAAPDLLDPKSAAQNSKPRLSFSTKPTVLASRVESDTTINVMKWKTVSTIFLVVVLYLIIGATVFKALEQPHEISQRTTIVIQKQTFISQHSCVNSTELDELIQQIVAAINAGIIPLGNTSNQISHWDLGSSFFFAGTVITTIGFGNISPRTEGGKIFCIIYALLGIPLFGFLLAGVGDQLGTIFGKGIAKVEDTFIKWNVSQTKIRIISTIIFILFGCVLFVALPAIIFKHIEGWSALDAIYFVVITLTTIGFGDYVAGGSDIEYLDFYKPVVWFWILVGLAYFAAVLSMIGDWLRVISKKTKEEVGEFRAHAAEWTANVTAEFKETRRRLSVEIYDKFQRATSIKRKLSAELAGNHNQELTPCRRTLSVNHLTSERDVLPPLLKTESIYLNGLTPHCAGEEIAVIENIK
Nature of the data set: Activation of human TREK-1 expressed in CHO cells at 10 uM in presence of ML335 by patch clamp electrophysiology method. The data set is classed as cell-based. The note with it: filed as activator.

Sequence of Potassium voltage-gated channel subfamily KQT member 5 (Q9NR82 whole entry): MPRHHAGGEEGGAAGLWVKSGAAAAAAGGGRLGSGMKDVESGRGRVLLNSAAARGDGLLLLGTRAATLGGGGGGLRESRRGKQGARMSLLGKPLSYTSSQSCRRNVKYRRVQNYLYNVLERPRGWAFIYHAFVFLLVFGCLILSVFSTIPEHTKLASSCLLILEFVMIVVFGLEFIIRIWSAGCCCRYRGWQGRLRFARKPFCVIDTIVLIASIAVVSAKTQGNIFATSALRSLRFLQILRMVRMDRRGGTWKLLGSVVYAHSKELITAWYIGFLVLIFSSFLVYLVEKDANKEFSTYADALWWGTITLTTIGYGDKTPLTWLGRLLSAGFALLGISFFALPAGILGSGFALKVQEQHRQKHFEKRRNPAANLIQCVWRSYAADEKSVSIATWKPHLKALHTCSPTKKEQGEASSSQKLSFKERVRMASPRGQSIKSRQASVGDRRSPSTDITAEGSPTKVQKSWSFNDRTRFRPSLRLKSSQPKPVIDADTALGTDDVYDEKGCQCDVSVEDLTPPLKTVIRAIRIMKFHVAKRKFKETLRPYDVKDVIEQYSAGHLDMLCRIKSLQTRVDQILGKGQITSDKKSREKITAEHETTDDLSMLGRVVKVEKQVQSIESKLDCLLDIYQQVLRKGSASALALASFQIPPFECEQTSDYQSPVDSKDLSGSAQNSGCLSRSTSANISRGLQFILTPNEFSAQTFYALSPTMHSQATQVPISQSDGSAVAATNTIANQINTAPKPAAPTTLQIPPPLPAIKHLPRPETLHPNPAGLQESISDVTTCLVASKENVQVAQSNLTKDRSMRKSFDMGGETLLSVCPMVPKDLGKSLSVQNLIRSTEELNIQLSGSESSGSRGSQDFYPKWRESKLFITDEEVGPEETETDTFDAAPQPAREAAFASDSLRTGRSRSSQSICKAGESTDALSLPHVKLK
Sequence of Potassium voltage-gated channel subfamily KQT member 2 (Homo sapiens) (O43526 whole entry): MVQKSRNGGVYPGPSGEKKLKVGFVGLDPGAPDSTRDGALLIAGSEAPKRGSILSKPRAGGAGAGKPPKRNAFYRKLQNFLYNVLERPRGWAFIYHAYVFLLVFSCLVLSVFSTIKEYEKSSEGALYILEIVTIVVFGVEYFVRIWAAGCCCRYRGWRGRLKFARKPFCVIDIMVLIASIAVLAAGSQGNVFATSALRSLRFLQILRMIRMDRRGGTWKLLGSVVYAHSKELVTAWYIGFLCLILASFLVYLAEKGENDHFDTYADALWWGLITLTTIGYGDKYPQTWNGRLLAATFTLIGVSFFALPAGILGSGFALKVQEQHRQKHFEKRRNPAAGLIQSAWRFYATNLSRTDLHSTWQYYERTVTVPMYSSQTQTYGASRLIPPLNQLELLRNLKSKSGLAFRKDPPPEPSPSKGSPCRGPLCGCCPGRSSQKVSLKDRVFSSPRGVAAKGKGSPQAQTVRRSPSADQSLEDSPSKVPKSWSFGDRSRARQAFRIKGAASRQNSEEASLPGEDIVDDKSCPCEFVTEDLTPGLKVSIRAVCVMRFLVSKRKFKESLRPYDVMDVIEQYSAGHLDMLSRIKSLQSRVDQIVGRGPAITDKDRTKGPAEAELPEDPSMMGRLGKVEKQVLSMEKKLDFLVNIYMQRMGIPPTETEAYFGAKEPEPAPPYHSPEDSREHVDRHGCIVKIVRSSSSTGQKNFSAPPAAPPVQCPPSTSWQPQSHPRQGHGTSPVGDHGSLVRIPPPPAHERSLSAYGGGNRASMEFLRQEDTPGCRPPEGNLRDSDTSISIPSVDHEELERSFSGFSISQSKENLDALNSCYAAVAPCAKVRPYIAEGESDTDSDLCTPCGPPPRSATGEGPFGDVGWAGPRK

Consider `O=C(Nc1ccc(Cl)nc1)c1ccc(F)cc1`, for which the result in data set [1] was Active. In the case of `Cc1ccc(CSCc2nnc(SCC(=O)Nc3ccc(Br)cc3I)n2C)cc1`, the log distribution coefficient (logD) – broadly, the decadic logarithm of the distribution of all forms, ionised or not, between an organic phase and buffer at a given pH – in data set [2] was 4.66. `Cc1ccc(CSCc2nnc(SCC(=O)Nc3ccc(Br)cc3Br)n2C)cc1` displayed a pH-dependent lipophilicity (logD) in data set [2] of 4.79. Also, the EC50 (in general, the concentration that produces a half-maximal response) in data set [3] worked out at 4.5 µM; in data set [4] it was 6.4 µM. As to `c1ccc(-c2nnn[nH]2)c(Nc2cccc3c2CCCC3)c1`, the result in data set [5] was Active.

Turning to `O=C(O)c1ccccc1Nc1ccc(CCc2ccc(Cl)c(Cl)c2)cc1`, the result in data set [5] was Active. In turn, `Cc1ccc(CSCc2nnc(SCC(=O)Nc3ccc(Br)cc3F)n2C)cc1` displayed a logD in data set [2] of 4.38.
